In article PMC11233931, “Remodeling tumor‐associated macrophage for anti‐cancer effects by rational design of irreversible inhibition of mitogen‐activated protein kinase‐activated protein kinase 2” (MedComm, 2024):

What was measured:
Assay in all cases: Eurofins kinase selectivity profile against 380 other human recombinant kinases (Table S2)
Assay type in all cases: biochemical
[1] = molecular target: T1, 380 human recombinant protein kinases (Homo sapiens, UniProt O60285); details: ARK5(h), read-out: Inhibition rate
T1 construct: purchased Eurofins (Celle Lévescault)
T1 sequence (O60285 1-661): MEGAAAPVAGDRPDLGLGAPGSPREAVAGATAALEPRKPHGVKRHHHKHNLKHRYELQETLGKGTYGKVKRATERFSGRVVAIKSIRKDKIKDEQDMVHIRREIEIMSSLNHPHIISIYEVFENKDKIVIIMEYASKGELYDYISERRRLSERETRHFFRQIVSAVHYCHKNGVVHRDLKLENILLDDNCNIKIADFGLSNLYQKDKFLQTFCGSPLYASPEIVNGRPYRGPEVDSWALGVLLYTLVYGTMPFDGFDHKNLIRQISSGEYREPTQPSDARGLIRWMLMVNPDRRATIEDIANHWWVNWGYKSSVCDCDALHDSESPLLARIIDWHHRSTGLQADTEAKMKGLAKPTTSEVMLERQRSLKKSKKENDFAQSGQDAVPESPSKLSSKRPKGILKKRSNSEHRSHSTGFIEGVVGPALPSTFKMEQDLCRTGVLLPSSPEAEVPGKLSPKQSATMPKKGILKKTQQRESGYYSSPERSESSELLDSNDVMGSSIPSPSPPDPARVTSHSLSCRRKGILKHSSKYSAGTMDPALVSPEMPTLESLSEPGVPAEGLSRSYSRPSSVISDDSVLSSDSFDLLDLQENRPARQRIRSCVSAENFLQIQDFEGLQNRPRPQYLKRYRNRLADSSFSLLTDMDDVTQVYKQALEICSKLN
Method in brief: (§1)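 Commercial selectivity screen of the test compound against a panel of 380 human recombinant protein kinases, run by an outside contractor at several compound concentrations to check whether its potency was specific for MK2.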

[2] = molecular target: T2, 380 human recombinant protein kinases (Homo sapiens, UniProt Q9NRM7); details: LATS2(h), read-out: Inhibition rate
T2 construct: purchased Eurofins (Celle Lévescault)
T2 sequence (Q9NRM7 1-1088): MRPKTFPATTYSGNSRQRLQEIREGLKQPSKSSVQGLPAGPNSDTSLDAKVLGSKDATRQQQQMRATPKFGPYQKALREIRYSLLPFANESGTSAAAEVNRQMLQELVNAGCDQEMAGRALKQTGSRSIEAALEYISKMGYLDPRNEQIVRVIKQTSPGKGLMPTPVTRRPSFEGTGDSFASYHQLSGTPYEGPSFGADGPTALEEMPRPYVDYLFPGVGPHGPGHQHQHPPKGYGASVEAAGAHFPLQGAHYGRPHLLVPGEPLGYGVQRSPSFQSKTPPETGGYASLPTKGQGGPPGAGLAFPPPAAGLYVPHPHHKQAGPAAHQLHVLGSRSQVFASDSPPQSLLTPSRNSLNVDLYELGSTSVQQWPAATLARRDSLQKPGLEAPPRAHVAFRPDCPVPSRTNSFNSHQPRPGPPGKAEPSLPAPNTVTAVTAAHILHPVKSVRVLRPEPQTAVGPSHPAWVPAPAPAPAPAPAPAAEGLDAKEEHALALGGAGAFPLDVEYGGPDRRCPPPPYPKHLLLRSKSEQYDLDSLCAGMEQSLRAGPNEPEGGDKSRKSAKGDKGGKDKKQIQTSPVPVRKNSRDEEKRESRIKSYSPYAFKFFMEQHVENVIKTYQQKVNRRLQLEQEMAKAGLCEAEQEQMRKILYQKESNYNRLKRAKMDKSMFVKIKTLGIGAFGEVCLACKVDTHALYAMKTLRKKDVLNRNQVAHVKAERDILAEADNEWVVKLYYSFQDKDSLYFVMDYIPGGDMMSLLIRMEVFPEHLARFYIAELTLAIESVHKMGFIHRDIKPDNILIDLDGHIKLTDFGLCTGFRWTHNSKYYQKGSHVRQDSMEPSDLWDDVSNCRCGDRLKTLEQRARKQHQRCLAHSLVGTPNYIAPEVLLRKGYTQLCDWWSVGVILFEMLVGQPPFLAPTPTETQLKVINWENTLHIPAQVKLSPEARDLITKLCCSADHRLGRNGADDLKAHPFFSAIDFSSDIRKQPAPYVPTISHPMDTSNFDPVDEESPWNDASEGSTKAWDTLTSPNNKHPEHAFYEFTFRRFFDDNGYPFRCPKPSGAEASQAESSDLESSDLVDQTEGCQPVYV
Method in brief: as §1

[3] = molecular target: T3, 380 human recombinant protein kinases (Homo sapiens, UniProt Q13237); details: PRKG2(h), read-out: Inhibition rate
T3 construct: purchased Eurofins (Celle Lévescault)
T3 sequence (Q13237 1-762): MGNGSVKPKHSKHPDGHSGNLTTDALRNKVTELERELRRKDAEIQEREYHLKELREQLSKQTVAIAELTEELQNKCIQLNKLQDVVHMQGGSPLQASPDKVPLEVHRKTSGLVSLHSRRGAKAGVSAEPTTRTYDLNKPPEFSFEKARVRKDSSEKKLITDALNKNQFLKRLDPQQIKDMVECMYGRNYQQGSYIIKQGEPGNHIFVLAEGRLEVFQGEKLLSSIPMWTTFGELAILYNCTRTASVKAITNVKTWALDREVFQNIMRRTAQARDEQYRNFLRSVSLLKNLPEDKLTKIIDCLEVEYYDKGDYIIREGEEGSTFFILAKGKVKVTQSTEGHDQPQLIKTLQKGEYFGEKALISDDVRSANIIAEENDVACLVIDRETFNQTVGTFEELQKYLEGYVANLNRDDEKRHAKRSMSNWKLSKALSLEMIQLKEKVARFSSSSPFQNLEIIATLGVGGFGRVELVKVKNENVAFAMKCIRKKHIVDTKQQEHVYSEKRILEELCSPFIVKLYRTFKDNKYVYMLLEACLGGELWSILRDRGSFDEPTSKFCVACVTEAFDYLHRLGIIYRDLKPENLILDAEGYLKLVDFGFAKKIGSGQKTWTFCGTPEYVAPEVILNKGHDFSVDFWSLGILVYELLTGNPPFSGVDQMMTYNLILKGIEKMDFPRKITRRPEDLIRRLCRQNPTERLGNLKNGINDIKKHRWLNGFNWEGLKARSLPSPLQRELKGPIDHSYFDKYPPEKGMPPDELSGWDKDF
Method in brief: as §1

With `C=CC(=O)Nc1cc(-c2cc(-c3cc4c([nH]3)CCNC4=O)ccn2)ccc1OC(F)(F)F` [compound 11] the inhibition at 0.01 µM ([1]; 10 nM) was -2%, the inhibition at 0.1 µM ([1]; 100 nM) was 14% and the inhibition at 1 µM ([1]; 1000 nM) was 28%. It also gave an inhibition at 0.01 µM ([2]; 10 nM) of 1%, an inhibition at 0.1 µM ([2]; 100 nM) of 8% and an inhibition at 1 µM ([2]; 1000 nM) of 4%. It also gave an inhibition at 0.01 µM ([3]; 10 nM) of 7%, an inhibition at 0.1 µM ([3]; 100 nM) of 19% and an inhibition at 1 µM ([3]; 1000 nM) of 35%.
